Patent publication US8263606B2 (Xenon Pharmaceuticals Inc., priority 2008, dated 2012)

Experiments:
[1] = target: CYP3A4 (Homo sapiens, UniProt P08684); test: Cytochrome P450 (CYP450) Inhibition Assay, CYP3A4 (Vivid fluorescence, BOMCC substrate); conditions: human, P450 Baculosomes (recombinant CYP3A4), probe BOMCC (Vivid substrate)
[2] = tested on: sodium channel; test: Guanidine influx assay (14C-guanidine radiotracer flux, in vitro); type: cell-based, human or rat; conditions: guanidine influx assay using a known cell line that expresses a sodium channel
In short: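 Aconitine holds channels open while 14C-guanidine enters human or rat sodium-channel-expressing cells in choline-substituted low-sodium saline, with test agent present at ambient temperature. Retained tracer is scintillation-counted and IC50 fitted by a four-parameter logistic model.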

Chain of CYP3A4 (P08684 whole entry): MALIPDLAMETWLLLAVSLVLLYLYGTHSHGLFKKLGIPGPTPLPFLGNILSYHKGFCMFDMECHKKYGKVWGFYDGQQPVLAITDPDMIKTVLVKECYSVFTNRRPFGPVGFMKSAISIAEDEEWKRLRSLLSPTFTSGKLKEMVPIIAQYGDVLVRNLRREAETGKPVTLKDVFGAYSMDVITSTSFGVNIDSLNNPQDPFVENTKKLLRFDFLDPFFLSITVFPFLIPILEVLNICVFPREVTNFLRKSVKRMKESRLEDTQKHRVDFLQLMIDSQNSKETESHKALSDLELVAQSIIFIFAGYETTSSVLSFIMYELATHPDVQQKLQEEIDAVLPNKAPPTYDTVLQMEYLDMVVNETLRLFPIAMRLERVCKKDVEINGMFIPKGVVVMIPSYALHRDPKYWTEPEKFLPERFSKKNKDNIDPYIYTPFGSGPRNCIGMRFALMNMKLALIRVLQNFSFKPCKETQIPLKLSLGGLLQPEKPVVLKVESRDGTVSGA

| SMILES | melting point [°C] | inhibition at 10 µM [1] [%] | IC50 ([2]; activity level class) [nM] | IC50 [2] [nM] |
| --- | --- | --- | --- | --- |
| O=C1N(Cc2nnc(-c3ccc(Cl)cc3)o2)c2ccccc2C12COc1cc3c(cc12)OCO3 (stereo not drawn) [Example 6.7, 1′-{[5-(4-chlorophenyl)-1,3,4-oxadiazol-2-yl]methyl}spiro[furo[2,3-f][1,3]benzodioxole-7,3′-indol]-2′(1′H)-one] | 161 to 162 | > 50 | 100 to 1000 | – |
| O=C1N(Cn2nc3ccccc3n2)c2ccccc2C12COc1cc3c(cc12)CCO3 (stereo not drawn) [Example 9.13, 1′-(2H-benzotriazol-2-ylmethyl)-5,6-dihydrospiro[benzo[1,2-b:5,4-b′]difuran-3,3′-indol]-2′(1′H)-one] | 102 to 105 | > 50 | 1 to 100 | – |
| O=C1N(Cc2cccc(Cl)n2)c2ccccc2C12COc1cc3c(cc12)OCCO3 (stereo not drawn) [Example 5.13, 1′-[(6-chloropyridin-2-yl)methyl]-2,3-dihydrospiro[furo[2,3-g][1,4]benzodioxine-8,3′-indol]-2′(1′H)-one] | 181 to 182 | > 50 | 1 to 100 | – |
| O=C1N(Cc2ncccc2C(F)(F)F)c2c(F)cccc2C12COc1cc3c(cc12)OCCO3 (stereo not drawn) [Example 8.16, 7′-fluoro-1-((3-(trifluoromethyl)pyridin-2-yl)methyl)-3,7-dihydro-2H-spiro[benzofuro[5,6-b][1,4]dioxine-8,3′-indolin]-2′-one] | 241 to 243 | < 50 | 1 to 100 | – |
| COCCOc1ccc2c(c1)OCC21C(=O)N(Cc2ccccn2)c2ccccc21 (stereo not drawn) [Example 5.34, 6-(2-methoxyethoxy)-1′-(pyridin-2-ylmethyl)spiro[1-benzofuran-3,3′-indol]-2′(1′H)-one] | 94 to 95 | < 50 | 100 to 1000 | – |
| O=C1N(Cc2cnc(N3CCOCC3)s2)c2ccccc2C12COc1cc3c(cc12)OCO3 (stereo not drawn) [Example 11.2, 1′-[(2-morpholin-4-yl-1,3-thiazol-5-yl)methyl]spiro[furo[2,3-f][1,3]benzodioxole-7,3′-indol]-2′(1′H)-one] | 97 to 99 | > 50 | – | 100 to 1000 |
| COc1ccc2c(c1)OCC21C(=O)N(Cc2ccccn2)c2ccccc21 (stereo not drawn) [Example 9.33, 6-methoxy-1′-(pyridin-2-ylmethyl)-2H-spiro[benzofuran-3,3′-indolin]-2′-one] | 122 to 123 | < 50 | 1 to 100 | – |
| N#Cc1cc2c(cc1F)OCC21C(=O)N(Cc2ncccc2C(F)(F)F)c2ccccc21 (stereo not drawn) [Example 9.51, 6-fluoro-2′-oxo-1′-{[3-(trifluoromethyl)pyridin-2-yl]methyl}-1′,2′-dihydrospiro[1-benzofuran-3,3′-indole]-5-carbonitrile] | 209 to 211 | < 50 | – | 1000 to 10000 |

Results, then the compound that gave them:

| melting point [°C] | inhibition at 10 µM [1] [%] | IC50 ([2]; activity level class) [nM] | IC50 [2] [nM] | SMILES |
| --- | --- | --- | --- | --- |
| 117 to 119 | < 50 | – | 100 to 1000 | O=C1N(Cc2ccccn2)c2ccccc2C12COc1cc3[nH]ncc3cc12 (stereo not drawn) [Example 46.1, 1′-(pyridin-2-ylmethyl)-1H-spiro[furo[3,2-f]indazole-5,3′-indol]-2′(1′H)-one] |
| 218 to 221 | < 50 | – | 1000 to 10000 | N#Cc1cc2c(cc1O)OCC21C(=O)N(C[C@H]2CCCO2)c2ccccc21 (stereo partly drawn) [Example 45, 6-hydroxy-2′-oxo-1′-[(2R)-tetrahydrofuran-2-ylmethyl]-1′,2′-dihydrospiro[1-benzofuran-3,3′-indole]-5-carbonitrile] |
| 102 to 112 | > 50 | – | 100 to 1000 | CN1CCOC(CN2C(=O)C3(COc4cc5c(cc43)OCCO5)c3ccccc32)C1 (stereo not drawn) [Example 11.104, 1-[(4-methylmorpholin-2-yl)methyl]-2,3-dihydrospiro[furo[2,3-g][1,4]benzodioxine-8,3′-indol]-2′(1′H)-one] |
